# In US7651978B2, “Selective herbicides based on a substituted phenylsulphonylaminocarbonyl-triazolinone” (Arysta LifeScience North America, LLC, priority 1998, dated 2010):
# Legend:
# Wheat [1] = assay: Pre-emergence test/greenhouse; type: in vivo; conditions: pre-emergence; for degree of damage, Wheat: 30 g of ai./ha, after three weeks, 0%=no effect, 100%=total destruction
# Experimental: (§1) Pre-Emergence Test/Greenhouse Solvent: 5 parts by weight of acetone Emulsifier: 1 part by weight of alkylaryl polyglycol ether To produce a suitable preparation of active compound, 1 part by weight of active compound is mixed with the stated amount of solvent, the stated amount of emulsifier is added and the concentrate is diluted with water to the desired concentration. Seeds of the test plants are sown in normal soil. After about 24 hours, the soil is sprayed with the preparation of active compound such that the particular amount of active compound desired is applied per unit area. The concentration of the spray liquor is chosen so that the particular amount of active compound desired is applied in 500 ml of water per hectare. After three weeks, the degree of damage to the plants is assessed in % damage in comparison to the development of the untreated control. The figures denote: • 0%=no effect (like untreated control) • 100%=total destruction
# Alopecurus [2] = assay: Pre-emergence test/greenhouse; type: in vivo; conditions: 504 h, 30 g of ai./ha, after three weeks, read-out: degree of damage, Alopecurus
# Experimental: as §1
# Digitaria = assay: Pre-emergence test/greenhouse; type: in vivo; conditions: 30 g of ai./ha, after three weeks
# Experimental: as §1
# Avena = assay: Pre-emergence test/greenhouse; type: in vivo; conditions: 504 h, 30 g of ai./ha, after three weeks, read-out: degree of damage, Avena
# Experimental: as §1
# Matricaria = assay: Pre-emergence test/greenhouse; type: in vivo; conditions: 30 g of ai./ha, after three weeks
# Experimental: as §1
# Polygonum = assay: Pre-emergence test/greenhouse; type: in vivo; conditions: 30 g of ai./ha, after three weeks
# Experimental: as §1
# Sinapis arvensis = assay: Post-emergence tests/outdoors (Example C, Canada); type: in vivo; conditions: outdoors, 70 WP, 5 tests
# Experimental: (§2) Post-Emergence Tests/Outdoors In addition to the comparative compounds (B) and (D), the sodium salt of the compound of the formula (I) was tested under outdoor conditions in the main cultivation areas of summer wheat in Canada against economically important weeds. The small-plot experiments were carried out on cultivated land under agricultural use. Areas with particularly extensive weed growth were chosen preferably. The active compounds were applied across the area by the spray method, with an average droplet size. To produce a useful preparation of active compound, the active compounds were formulated as 70 WP (70% w/w water-dispersible powder) and applied with customary amounts of water. Wetting of the plants was improved by addition of a surface-active substance (SAS) in the concentrations recommended by the respective manufacturer. To assess the crop compatibility, from 1 to 8 weeks after the treatment, plant growth inhibitions or […] of the leaf area were assessed in % damage in comparison to the development of the untreated control. At different intervals after the treatment, the herbicidal activity was assessed as % reduction in comparison to the untreated control, based on the weed development. The figures denote: • 0%=no damage of the crops or no herbicidal effect, • 100%=total destruction of the crops or the weeds.
# Avena fatua = assay: Post-emergence tests/outdoors (Example C, Canada); type: in vivo; conditions: outdoors, 70 WP, 6 tests
# Experimental: as §2
# Setaria viridis = assay: Post-emergence tests/outdoors (Example C, Canada); type: in vivo; conditions: outdoors, 70 WP, 5 tests
# Experimental: as §2
# Thlaspi arvense = assay: Post-emergence tests/outdoors (Example C, Canada); type: in vivo; conditions: outdoors, 70 WP, 3 tests
# Experimental: as §2
# Fallopia convolvulus = assay: Post-emergence tests/outdoors (Example C, Canada); type: in vivo; conditions: outdoors, 70 WP, 5 tests
# Experimental: as §2
# [3] = tested on: weeds, such as Alopecurus, Avena, Bromus, Digitaria, Echinochloa, Matricaria, Polygonum and Setaria; assay: Pre-emergence test/greenhouse, summary over weeds; type: in vivo; conditions: cf. Table A1
# Experimental: Pre-Emergence Test/Greenhouse Solvent: 5 parts by weight of acetone Emulsifier: 1 part by weight of alkylaryl polyglycol ether To produce a suitable preparation of active compound, 1 part by weight of active compound is mixed with the stated amount of solvent, the stated amount of emulsifier is added and the concentrate is diluted with water to the desired concentration. Seeds of the test plants are sown in normal soil. After about 24 hours, the soil is sprayed with the preparation of active compound such that the particular amount of active compound desired is applied per unit area. The concentration of the spray liquor is chosen so that the particular amount of active compound desired is applied in 500 ml of water per hectare. After three weeks, the degree of damage to the plants is assessed in % damage in comparison to the development of the untreated control. […] Table A1). The considerable superiority of (I)-Na-salt over the comparative compound (G) is shown in Table A2 [“ai.”=“active ingredient”].
# Wheat [4] = assay: Post-emergence test/greenhouse; type: in vivo; conditions: post-emergence, 60 g ai./ha, after three weeks; 0%=no effect, 100%=total destruction
# Experimental: (§3) Post-Emergence Test/Greenhouse [table] To produce a suitable preparation of active compound, 1 part by weight of active compound is mixed with the stated amount of solvent, the stated amount of emulsifier is added and the concentrate is diluted with water to the desired concentration. Test plants which have a height of 5-15 cm are sprayed with the preparation of active compound such that the particular amounts of active compound desired are applied per unit area. The concentration of the spray liquor is chosen so that the particular amounts of active compound desired are applied in 500 ml of water/ha. After three weeks, the degree of damage to the plants is assessed in % damage in comparison to the development of the untreated control. The figures denote: • 0%=no effect (like untreated control) • 100%=total destruction
# Veronica = assay: Post-emergence test/greenhouse; type: in vivo; conditions: 60 g ai./ha, after three weeks
# Experimental: as §3
# wheat [5] = assay: Post-emergence tests/outdoors (Example C, Canada), crop damage; type: in vivo, summer wheat; conditions: outdoors, 70 WP, 9 tests, 1 to 8 weeks after treatment
# Experimental: as §2
# [6] = tested on: weeds, such as Agropyron, Alopecurus, Avena, Bromus, Lolium, Setaria and Veronica; assay: Post-emergence test/greenhouse, summary over weeds; type: in vivo; conditions: cf. Table B1
# Experimental: as §3, with “[…] A considerable superiority of (I)-Na-salt (at 125 g/ha) over the comparative compounds (G) and (H) (in each case at 250 g/ha!) is shown in Table B2.” for “The figures denote: • 0%=no effect (like untreated control) • 100%=total destruction”
# Alopecurus [7] = assay: Post-emergence test/greenhouse; type: in vivo; conditions: 504 h, 60 g ai./ha, after three weeks, read-out: degree of damage, Alopecurus
# Experimental: as §3
# Lolium = assay: Post-emergence test/greenhouse; type: in vivo; conditions: 60 g ai./ha, after three weeks
# Experimental: as §3
# [8] = 15 g of a.i./ha + SAS (Canplus 411)
# [9] = 30 g of a.i./ha + SAS (Canplus 411)
smiles,measurement,setting,value
"COc1nn(C(=O)NS(=O)(=O)c2ccccc2C(F)(F)F)c(=O)n1C [(D), 2-(2-Trifluoromethyl-phenylsulphonylaminocarbonyl)-4-methyl-5-methoxy-2,4-dihydro-3H-1,2,4-triazol-3-one]","degree of damage, Wheat",Wheat [1],0%
same,pest or weed control at 30 g/ha,Alopecurus [2],70%
same,"degree of damage, Digitaria",Digitaria,80%
same,pest or weed control at 30 g/ha,Avena,50%
same,"degree of damage, Matricaria",Matricaria,30%
same,"degree of damage, Polygonum",Polygonum,70%
same,"herbicidal effect (%), Sinapis arvensis",Sinapis arvensis; [8],95%
same,"herbicidal effect (%), Avena fatua",Avena fatua; [8],65%
same,"herbicidal effect (%), Setaria viridis",Setaria viridis; [8],81%
same,"herbicidal effect (%), Thlaspi arvense",Thlaspi arvense; [8],95%
same,"herbicidal effect (%), Fallopia convolvulus",Fallopia convolvulus; [8],70%
same,"herbicidal activity (in words, compared with (I)-Na-salt)",[3],considerably weaker herbicidal activity
same,"degree of damage, Wheat",Wheat [4],0%
same,"degree of damage, Veronica",Veronica,0%
same,Crop damage (wheat),wheat [5]; [8],12%
same,"herbicidal activity (in words, compared with (I)-Na-salt)",[6],considerably weaker herbicidal activity
"CCOc1nn(C(=O)NS(=O)(=O)c2ccccc2OC(F)(F)F)c(=O)n1C [(B), 2-(2-Trifluoromethoxy-phenylsulphonylaminocarbonyl)-4-methyl-5-ethoxy-2,4-dihydro-3H-1,2,4-triazol-3-one]","degree of damage, Wheat",Wheat [1],50%
same,"compatibility with crop plants (wheat), in words",Wheat [1]; cf. Table A1,not compatible with wheat
same,pest or weed control at 30 g/ha,Alopecurus [2],70%
same,pest or weed control at 30 g/ha,Avena,80%
same,"degree of damage, Polygonum",Polygonum,80%
same,"herbicidal effect (%), Sinapis arvensis",Sinapis arvensis; [9],97%
same,"herbicidal effect (%), Avena fatua",Avena fatua; [9],69%
same,"herbicidal effect (%), Setaria viridis",Setaria viridis; [9],95%
same,"herbicidal effect (%), Thlaspi arvense",Thlaspi arvense; [9],97%
same,"herbicidal effect (%), Fallopia convolvulus",Fallopia convolvulus; [9],71%
same,"degree of damage, Wheat",Wheat [4],0%
same,pest or weed control at 60 g/ha,Alopecurus [7],40%
same,"degree of damage, Veronica",Veronica,70%
same,"degree of damage, Lolium",Lolium,70%
same,Crop damage (wheat),wheat [5]; [9],5%
same,"herbicidal activity (in words, compared with (I)-Na-salt)",[6],considerably weaker herbicidal activity
